# Reference: US10370391B2, “Hydrogen peroxide-activable, anti-oxidant compounds and methods using same” (Beth Israel Deaconess Medical Center, Inc., priority 2014, dated 2019)
# Key:
# [1] = tested on: adult rat ventricular cardiomyocytes (ARVC); assay: MTT cytotoxicity assay, ARVC; type: cell-based; details: concentrations as high as 5 mM, 24 hours of incubation
# Description: FIG. 3, comprising FIGS. 3A-3B, is a set of bar graphs illustrating biocompatibility profiles of BRAP assessed by MTT assay in mouse macrophage (RAW264.7) cells (FIG. 3A) and ARVC (FIG. 3B).
# [2] = tested on: renal ischemia/reperfusion (I/R) injury; assay: Kidney I/R injury model in the mouse, oral BRAP; type: in vivo
# Description: BRAP administered orally was tested in a kidney I/R injury model in the mouse. In this model, one of the mouse's kidney was subjected to ischemia for about 30 min, using a combination of unilateral clamping and contralateral nephrectomy. BRAP was administered orally to the mice at two time points: the night before the surgery, and immediately before the I/R surgery. The read-out markers after I/R comprised: creatinine levels 24 hours after reperfusion; tumor necrosis factor alpha (TNF-α) and monocyte chemo-attractant protein-1 (MCP-1) (both inflammatory markers); DHE staining (monitoring for ROS generation); and TUNEL staining (monitoring for apoptosis).
# hepatic I/R injury = assay: Mouse model of hepatic I/R injury; type: in vivo; details: ip at reperfusion
# Description: FIG. 5, comprising FIGS. 5A-5D, is a set of images and bar graphs illustrating beneficial effects of BRAP in hepatic I/R (1 hour ischemia/12 hour reperfusion) injury. FIG. 5A: Hematoxylin and eosin (H/E) staining, DHE staining, and TUNEL staining of mouse liver after injection with HBA or BRAP. FIGS. 5B-5D: Quantitative analysis of serum ALT levels (FIG. 5B), cleaved caspase-3 protein expression (FIG. 5C), and TNF-α protein expression (FIG. 5D) after I/R injury. *p<0.01 relative to Veh I/R. †p<0.05 relative to HBA I/R (n=3˜4/group). Actin protein expression was used as an internal control for protein loading.
# Experiments to evaluate whether BRAP reduces ROS generation and inhibits apoptosis were performed in a mouse model of […] I/R injuries. I/R was induced first by 1 hour of ligation of hepatic artery and portal vein followed by reperfusion of hepatic artery. BRAP or HBA was then administrated intraperitoneally (ip) at the time of reperfusion.
# Hepatic I/R surgery was performed in 12 week-old male mice. Briefly, mice were anaesthetized, and midline incision was performed for laparotomy. After identifying the portal triad and biliary tree, the main trunk of hepatic artery and portal vein were clamped with vascular clip except for the vasculatures to the right lower lobe to achieve ischemic injury to approximately 70% of the liver. After 1 hour of ischemia, reperfusion was achieved by releasing the vascular clip. No vascular clamp was done for the sham group of mice.
# For liver apoptosis assay, terminal deoxynucleotidyl transferase dUTP nick end labeling (TUNEL) staining was performed using a DeadEnd™ Fluorometric TUNEL kit (Promega, Madison, Wis.). Tissue sections were stained for nuclei (4′,6-diamidino-2-phenylindole (DAPI) staining) and apoptotic nuclei (TUNEL staining) and analyzed using a confocal laser scanning microscope. For heart tissues, TUNEL staining was performed using in situ cell death detection Kit, fluorescein (Roche Applied Science, Indianapolis, Ind.). To distinguish cardiomyocyte from non-cardiomyocyte nuclei, triple stain for nuclei (DAPI staining), apoptotic nuclei (TUNEL staining), and cardiomyocytes (α-Actinin staining) was used, and the stained sections were analyzed using confocal microscopy. A minimum of ˜10 high power fields with ˜2000 nuclei/field were counted for each sample.
# Heart tissues were collected for molecular analyses were performed in Bae, et al., 2010, Am J Physiol Heart Circ Physiol 299:H1374. For RT-PCR ribosomal 18S primers acted as internal controls and all RT-PCR signals were normalized to the 18S signal of the corresponding RT products. For Western blot analysis, the protein content was measured using BCA assay. Actin protein expression was used as an internal control for protein loading.
# The optimal cutting temperature (OCT)-embedded tissues were fixed in 4% paraformaldehyde. Tissue sections were incubated with 5 μM dihydroethidium (DHE, Sigma-Aldrich) at 37° C. for 30 min in a humidified chamber protected from light. Then, 4′,6-diamidino-2-phenylindole (DAPI) was applied. Images were acquired by confocal fluorescence microscope.
# [3] = tested on: mouse macrophage (RAW 264.7) cells stimulated by LPS; assay: Intracellular ROS generation in LPS-stimulated macrophages (DCFH-DA, flow cytometry); type: cell-based; details: BRAP 0.25 mM, compared with 0.5 mM of HBA; LPS 1 μg/mL
# Description: FIG. 4, comprising FIGS. 4A-4F, is a set of graphs, bar graphs and images illustrating anti-oxidant and anti-inflammatory effects of BRAP in vitro. […] The generation of ROS was monitored by flow cytometry as an indicator of DCF fluorescence. Fluorescence was analyzed in 10,000 cells with excitation at 480 nm and emission at 530 nm. FIG. 4C: Protective effect of BRAP on H2O2— stimulated adult rat cardiomyocytes. V=vehicle, *<0.05 vs. V+H2O2 (n=4). […] (n=4/group).
# The anti-oxidant activities of BRAP were examined using mouse macrophage (RAW 264.7) and fibroblast (NIH/3T3) cells stimulated by LPS (lipopolysaccharide) (FIGS. 4A-4B). Intracellular ROS production in the stimulated cells was analyzed by flow cytometry using DCFH-DA ([…]-diacetate), which can be oxidized by the action of various intracellular oxidants such as H2O2 and hydroxyl radical to become fluorescent […] (DCF) (Kim, et al., 2011, Biomat. 32:3021; Cho, et al., 2012, Adv. Funct. Mat. 22:4038). Untreated cells have no significant DCF fluorescence.
# [4] = oral administration, 24 hours after reperfusion
smiles,measurement,setting,value
"CC1(CO)COB(c2ccc(CO)cc2)OC1 [BRAP, (4-(5-(hydroxymethyl)-5-methyl-1,3,2-dioxaborinan-2-yl)phenyl)methanol]",cytotoxicity (MTT),[1],no significant cytotoxicity
same,renal function (creatinine levels),"[2]; daily oral administration 8 mg/kg, after 4 days",significant improvement
same,DHE staining (ROS generation) in kidney,[2]; oral administration,significantly reduced
same,TUNEL staining (apoptosis) in kidney,[2]; oral administration,significantly reduced
same,activation of MCP-1 in kidney,[2]; [4],significantly attenuated
same,activation of TNF-α in kidney,[2]; [4],significantly attenuated
same,ROS generation (DHE staining) in liver,hepatic I/R injury,higher inhibitory effects on ROS generation than HBA
same,protection from I/R-induced liver damage (serum ALT),hepatic I/R injury,concentration-dependent protection
same,"hepatic damages (histology, H/E)","hepatic I/R injury; 1 hour ischemia/12 hour reperfusion, same dose of HBA and BRAP",significant attenuation
same,TNF-α protein expression,hepatic I/R injury; same dose of HBA and BRAP,significant inhibition
same,cleaved caspase-3 protein expression,hepatic I/R injury; same dose of HBA and BRAP,significant inhibition
same,hepatic apoptosis (TUNEL),hepatic I/R injury; same dose of HBA and BRAP,significantly greater anti-apoptotic effects than HBA
same,inhibition of LPS-induced ROS generation,[3],significantly stronger inhibitory effects
